Cc1cccc(Nc2ccccc2C(=O)O)c1C
solubility (mole fraction)
Details | in DMAc | in DMF | in acetone | in cyclohexane | in ethanol | in ethyl acetate | in isopropanol | in n-heptane | in n-hexane | in water
298 K | 0.122 | 0.0171 | 0.0054 | 0.0009 | 0.0019 | 0.0039 | 0.002 | 0.0011 | 0.0013 | –
303 K | 0.138 | 0.0208 | 0.0055 | 0.0009 | 0.002 | 0.0045 | 0.0024 | 0.0013 | 0.0014 | –
308 K | 0.153 | 0.0275 | 0.0065 | 0.0011 | 0.0024 | 0.0055 | 0.0026 | 0.0015 | 0.0016 | –
313 K | 0.165 | 0.0327 | 0.007 | 0.0012 | 0.0032 | 0.0071 | 0.0033 | 0.0017 | 0.0018 | 1e-05
318 K | 0.175 | 0.0391 | 0.0084 | 0.0014 | 0.0037 | 0.0079 | 0.004 | 0.0018 | 0.002 | 3e-05
323 K | 0.19 | 0.0551 | 0.0098 | 0.0016 | 0.0042 | 0.0096 | 0.0053 | 0.0022 | 0.0024 | 5e-05

Source: BigSolDB 2.1
